A short description of series [1]: WST-1 cytotoxicity assay, HL-60. The settings on record: human, HL-60 cells (acute myeloid leukemia); WST-1, 48 h incubation; read-out: EC50 class, cytotoxic effect, CL-1 (HL-60). The format is cell-based. The procedure: (§1) For this cytotoxic evaluation of the compounds the commercial available WST-1 assay (Roche) was used according to the manufacturer's instructions. The assay is based on the cleavage of the tetrazolium salt WST-1 by mitochondrial dehydrogenases found in viable cells. In general compounds were added to cells cultured in 96-well plates at 37° C. After 48 h of incubation 10 μl of WST-1 solution was added. The formazan dye was analyzed with an ELISA plate reader at (450 vs. 620) nm. CL-1: human acute myeloid leukemia, HL-60 CL-2: human cervix carcinoma, HeLa CL-3: human prostate carcinoma, PC-3 CL-4: human colon adenocarcinoma, Caco-2 CL-5: human breast adenocarcinoma, MCF-7

Series [2] in a line: WST-1 cytotoxicity assay, MCF-7. The settings on record: human, MCF-7 cells (breast adenocarcinoma); WST-1, 48 h incubation; read-out: EC50 class, cytotoxic effect, CL-5 (MCF-7). The format is cell-based. The procedure: as §1
In general terms: Formazan colour is commonly taken as a measure of viable cells.

The next series has as its target hPin1 (Homo sapiens, UniProt Q13526). Description: protease-coupled PPIase assay, hPin1. It counts as biochemical. As to conditions: 6 nM hPin1, substrate Ac-Ala-Ala-Ser(PO3H2)-Pro-Arg-pNA, trypsin, pH 7.8, 6° C.; read-out: IC50 class, Target T-1 (hPin1).
The target of a further series is hFKBP12 (Homo sapiens, UniProt P62942). Description: protease-coupled PPIase assay, hFKBP12. The format is biochemical. As to conditions: 20 nM hFKBP12, substrate Suc-Ala-Phe-Pro-Phe-pNA, chymotrypsin, pH 7.8, 6° C.; read-out: IC50 class, Target T-2 (hFKBP12).
hFKBP12, sequence (P62942 whole entry): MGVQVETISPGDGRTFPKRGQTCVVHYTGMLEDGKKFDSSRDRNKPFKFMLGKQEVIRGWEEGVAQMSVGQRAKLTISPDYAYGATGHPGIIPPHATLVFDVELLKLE
A further series concerns the target hCyp18 (Homo sapiens, UniProt P62937). Description: protease-coupled PPIase assay, hCyp18. As to conditions: 10 nM hCyp18, substrate Suc-Ala-Phe-Pro-Phe-pNA, chymotrypsin, pH 7.8, 6° C.; read-out: IC50 class, Target T-3 (hCyp18). It counts as biochemical.
For another series, the target named is LpCyp18 (Legionella pneumophila, UniProt Q5ZRZ4). In words: biochemical. As to conditions: IC50 class, Target T-4 (LpCyp18).
LpCyp18, sequence (Q5ZRZ4 1-164): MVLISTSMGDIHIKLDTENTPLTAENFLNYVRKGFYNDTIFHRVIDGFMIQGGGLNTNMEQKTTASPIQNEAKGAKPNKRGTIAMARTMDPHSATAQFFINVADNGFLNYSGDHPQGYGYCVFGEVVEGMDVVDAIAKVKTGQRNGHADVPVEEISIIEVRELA
The target of a further series is EcParvulin (Escherichia coli, UniProt P0A9L5). Description: protease-coupled PPIase assay, EcParvulin. The format is biochemical.
EcParvulin, sequence (P0A9L5 whole entry): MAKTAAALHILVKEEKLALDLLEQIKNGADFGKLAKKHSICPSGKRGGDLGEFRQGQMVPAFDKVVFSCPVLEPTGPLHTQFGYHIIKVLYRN
A further series concerns the target T1, Papain (Carica papaya, UniProt P00784).
T1 sequence (P00784 134-345): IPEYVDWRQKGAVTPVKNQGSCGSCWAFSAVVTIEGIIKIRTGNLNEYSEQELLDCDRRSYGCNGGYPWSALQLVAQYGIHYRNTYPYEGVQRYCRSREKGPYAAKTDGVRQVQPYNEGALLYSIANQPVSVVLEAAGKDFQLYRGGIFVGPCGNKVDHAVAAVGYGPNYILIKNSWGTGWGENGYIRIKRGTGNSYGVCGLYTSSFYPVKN
Description: papain assay. As to conditions: 16 μg/ml papain, 2 mM Bz-DL-Arg-pNA, pH 6.5, 30° C., 30 min incubation; read-out: IC50 class, Target T-6 (Papain). The format is biochemical. The procedure:
In order to investigate the impact of some of the inventive compounds on the activity of key proteases the following assay was performed: Protease activities were measured spectrophotometrically at 30° C. according to Schomburg and Salzmann (Schomburg, B.; Salzmann M. GBF: Enzyme Handbook. Springer Verlag, Berlin Heidelberg, 1991) and Bergmeyer et al. (Bergmeyer, H. U.; Bergmeyer, J.; Graβl, M. Methods of Enzymatic Analysis, Vol. V Enzymes 3: Peptides, Proteinases and Their Inhibitors. pp 55-371, VCH, Weinheim, 1988). The release of 4-nitroaniline was determined at 390 nm with a Spectramax Plus UV/Vis spectrophotometer (Molecular Devices). The cathepsin B assay was performed in a reaction mixture containing 0.2 μg/ml cathepsin B, 2 mM Z-Arg-Arg-pNA in 88 mM KH2PO4, 12 mM Na2HPO4, 1.33 mM EDTA, 0.03% Brij 35 (pH 5.8). The trypsin assay was carried out in a reaction mixture containing 0.1 μg/ml trypsin and 120 μM Ac-Ala-Ala-Ser(PO3H2)-Pro-Arg-pNA in 35 mM HEPES (pH 7.8) and the papain assay in a mixture consisting of 16 μg/ml papain and 2 mM Bz-DL-Arg-pNA in 10 mM Na2HPO4, 2 mM L-Cys, 5 mM EDTA (pH 6.5). In general, reactions were started by addition of peptide substrate after a 30 min incubation of 1-100 μM effector with given concentrations of enzyme.

Series [3] can be described thus: WST-1 cytotoxicity assay, HeLa. It counts as cell-based. As to conditions: human, HeLa cells (cervix carcinoma); WST-1, 48 h incubation; read-out: EC50 class, cytotoxic effect, CL-2 (HeLa). The procedure:
as §1

Series [4] can be described thus: WST-1 cytotoxicity assay, PC-3. The format is cell-based. As to conditions: human, PC-3 cells (prostate carcinoma); WST-1, 48 h incubation; read-out: EC50 class, cytotoxic effect, CL-3 (PC-3). The procedure:
as §1

Like-named read-outs stand apart in the source and are kept apart here.

hPin1, sequence (Q13526 whole entry): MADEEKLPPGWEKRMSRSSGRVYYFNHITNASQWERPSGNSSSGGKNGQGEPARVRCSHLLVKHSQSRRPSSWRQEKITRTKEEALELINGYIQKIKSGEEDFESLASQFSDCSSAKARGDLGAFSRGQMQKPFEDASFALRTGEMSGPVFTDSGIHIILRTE
hCyp18, sequence (P62937 whole entry): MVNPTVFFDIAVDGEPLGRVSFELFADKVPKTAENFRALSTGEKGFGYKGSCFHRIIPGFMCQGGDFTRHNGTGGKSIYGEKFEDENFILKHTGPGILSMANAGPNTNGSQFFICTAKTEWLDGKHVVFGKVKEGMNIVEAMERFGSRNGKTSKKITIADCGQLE

As to `CC(C)(C)CC(C)(C)NC(=O)Nc1cc(Cl)ccc1O` [Compound 6], the figures for the EC50 at 48 h in series [1] and in series [2] were 10 to 50 µM and less than 10 µM, respectively.
Take `CC(C)(C)CC(C)(C)NC(=O)Nc1cccc(Cl)c1O` [Compound 54]: the values for the concentration for a half-maximal effect (EC50) at 48 h in series [1] and in series [2] were 10 to 50 µM and less than 10 µM, respectively.
For `Cc1c(Cl)cc(NC(=O)NC23CC4CC(CC(C4)C2)C3)c(O)c1Cl` [Compound 118], the IC50 is 1 to 10 µM on hPin1; 50 to 100 µM at hFKBP12; 10 to 50 µM on hCyp18; 10 to 50 µM on LpCyp18; 1 to 10 µM at EcParvulin; greater than 100 µM on Papain.
For `CC(C)(C)CC(C)(C)NC(=O)Nc1ccc(F)c(F)c1O` [Compound 150], the EC50 at 48 h is 10 to 50 µM in [1] and less than 10 µM in [2].
On the same counts, the results for `Oc1c(Cl)cc(Cl)cc1NC(=S)Nc1ccccc1C(F)(F)F` [Compound 221] are 10 to 50 µM and 10 to 50 µM.
For the compound `Oc1c(Cl)cc(Cl)cc1NCc1ccccc1Sc1ccc(Cl)cc1` [Compound 329], the EC50 at 48 h in series [1], in series [3], in series [4] and in [2] was 10 to 50 µM throughout.
Take `Oc1c(Cl)cc(Cl)cc1NCc1ccccc1Sc1ccccc1Cl` [Compound 332]: the EC50 at 48 h in series [1], in [3] and in series [4] was 10 to 50 µM throughout.
`Oc1c(Cl)cccc1NCc1ccccc1Sc1ccc(Cl)cc1` [Compound 343]: the IC50 at hPin1 is 1 to 10 µM; on hFKBP12 it was greater than 100 µM; on hCyp18, 10 to 50 µM; against LpCyp18, greater than 100 µM; against EcParvulin, greater than 100 µM; at Papain, greater than 100 µM.
Turning to `Cc1c(Cl)cc(NCc2ccccc2Sc2ccc(Cl)cc2)c(O)c1Cl` [Compound 371], the IC50 on hPin1 was less than 1 µM; at hFKBP12, greater than 100 µM; on hCyp18, 10 to 50 µM; against LpCyp18, greater than 100 µM; against EcParvulin, 10 to 50 µM; on Papain, greater than 100 µM.
`Oc1c(F)cc(Br)cc1NCc1ccccc1Sc1ccc(Cl)cc1` [Compound 385]: at Papain, the IC50 was greater than 100 µM.
For the compound `Oc1c(NCc2ccccc2Sc2ccccc2Cl)ccc(F)c1F` [Compound 402], the EC50 at 48 h in series [1], in [3] and in series [4] was 10 to 50 µM throughout.
Consider `Oc1c(NCc2ccccc2Sc2cccc(Cl)c2)ccc(F)c1F` [Compound 403], for which the EC50 at 48 h in series [1] is 10 to 50 µM; in series [3], less than 10 µM; in series [4], less than 10 µM.
Turning to `CC(O)c1cc(Cl)cc(NCc2ccccc2Sc2ccc(Cl)cc2)c1O` (stereo not shown) [Compound 413], the figures for the EC50 at 48 h in series [1], in series [3] and in series [4] were 10 to 50 µM, less than 10 µM and 10 to 50 µM, respectively.
Regarding `CCc1c(Cl)cc(NCc2ccccc2Sc2ccc(Cl)cc2)c(O)c1Cl` [Compound 441], the concentration for half-maximal inhibition (IC50) at hPin1 was 1 to 10 µM; at hFKBP12 it was greater than 100 µM; on hCyp18, 10 to 50 µM; at LpCyp18, greater than 100 µM; at EcParvulin, greater than 100 µM; on Papain, greater than 100 µM.
For `CC(C)(C)c1ccc(Oc2cccc(CNc3cc(Cl)cc(Cl)c3O)c2)cc1` [Compound 483], the IC50 at hPin1 was 1 to 10 µM; at hFKBP12, greater than 100 µM; on hCyp18, 10 to 50 µM; against LpCyp18, greater than 100 µM; on EcParvulin (20 nM EcParvulin, substrate Suc-Ala-Phe-Pro-Phe-pNA, chymotrypsin, pH 7.8, 6° C., read-out: IC50 class, Target T-5 (EcParv)) it was 50 to 100 µM. For the same compound, the EC50 at 48 h in series [3] and in series [4] was 10 to 50 µM in each case.
With `Oc1c(Cl)cc(Cl)cc1NCc1cccc(OCc2ccccc2)c1` [Compound 484], the EC50 at 48 h in [1] is 10 to 50 µM; in series [3], less than 10 µM; in series [4], less than 10 µM.
With `COc1ccc(Oc2cccc(CNc3cc(Cl)cc(Cl)c3O)c2)cc1` [Compound 493], the half-maximal effective concentration (EC50) at 48 h is 10 to 50 µM in series [1], less than 10 µM in series [3] and less than 10 µM in [4].
For `Cc1c(Cl)cc(NCc2cccc(Oc3ccc(Cl)cc3)c2)c(O)c1Cl` [Compound 498], the IC50 at Papain is greater than 100 µM.
For the compound `Cc1c(Cl)cc(NCc2cccc(Oc3ccc(C(C)(C)C)cc3)c2)c(O)c1Cl` [Compound 499], at Papain, the IC50 is greater than 100 µM.
Regarding `CCCCCCCCS(=O)(=O)Nc1cc(Cl)c(C)c(Cl)c1O` [Compound 563], the IC50 is 1 to 10 µM at hPin1; greater than 100 µM at hFKBP12; greater than 100 µM on hCyp18; greater than 100 µM against LpCyp18; greater than 100 µM against EcParvulin; greater than 100 µM on Papain.
As to `Oc1ccccc1NCc1ccccc1Sc1ccc(Cl)cc1` [Compound 630], the EC50 at 48 h was 10 to 50 µM in [1], less than 10 µM in [3] and less than 10 µM in series [4].
For `O=C(NCc1ccccc1)Nc1cc(Cl)c(O)c(NCc2ccccc2Sc2ccc(Cl)cc2)c1` [Compound 631], the EC50 at 48 h was less than 10 µM in series [1] and 10 to 50 µM in series [4].
On the same counts, the results for `O=C(NCCc1ccccc1)Nc1cc(Cl)c(O)c(NCc2ccccc2Sc2ccc(Cl)cc2)c1` [Compound 632] are less than 10 µM and 10 to 50 µM.
For the compound `CC(C)(C)NC(=S)Nc1cc(-c2nc3ccccc3s2)cc(Cl)c1O` [Compound 640], the IC50 at hPin1 fell in the range of 1 to 10 µM. Besides, the EC50 at 48 h in series [1] and in [2] was 10 to 50 µM each time.
Turning to `CCCCCNC(=O)Nc1ccc(C)cc1O` [Compound 643], the IC50 is 10 to 50 µM on hPin1; greater than 100 µM at hFKBP12; greater than 100 µM on hCyp18; greater than 100 µM on LpCyp18; greater than 100 µM on EcParvulin; greater than 100 µM on Papain.
For the compound `Cc1c(Cl)cc(NC(=O)c2ccc(-c3ccccc3)cc2)c(O)c1Cl` [Compound 644], the IC50 at Papain is greater than 100 µM.
With `Oc1c(Cl)cc(-c2nc3ccccc3s2)cc1NC(=S)NC1CCCC1` [Compound 653], the EC50 at 48 h in series [1] is less than 10 µM; in series [2] it was 10 to 50 µM.
In the case of `O=C(Nc1cc(Cl)c(O)c(NCc2ccccc2Sc2ccc(Cl)cc2)c1)N1CCOCC1` [Compound 654], the 50% effective concentration (EC50) at 48 h was 10 to 50 µM in [3] and less than 10 µM in series [2].
As to `O=C(Nc1cc(Cl)c(O)c(Cl)c1)NC1CCCCC1` [Compound 710], the IC50 on hPin1 is less than 1 µM; on hFKBP12 it was greater than 100 µM; at hCyp18, greater than 100 µM; against LpCyp18 it was greater than 100 µM; on EcParvulin it was greater than 100 µM; on Papain, greater than 100 µM.
In the case of `Cc1cccc(C)c1NC(=O)Nc1cc(Cl)c(O)c(Cl)c1` [Compound 716], the IC50 at hPin1 was 1 to 10 µM; on hFKBP12, greater than 100 µM; at hCyp18 it was greater than 100 µM; against LpCyp18, greater than 100 µM; on EcParvulin, 10 to 50 µM; at Papain, greater than 100 µM.

Usually EC50 stands for the concentration that produces a half-maximal response. One may read the IC50 as the concentration that inhibits the measured activity by half.

(Values after patent publication US20110065760A1, “COMPOUNDS FOR THE INHIBITION OF ROTAMASES AND USE THEREOF” (Jerini AG, priority 2002, published 2011).)
